Read-outs that look alike come from different tables or passages of the source.
Tested on: DLD-1 BRCA2−/− cells
Experiment: Homologous recombination synthetic lethal inhibition of proliferation, DLD-1 BRCA2-/- (Cell Titre Glo 3D)
Type: cell-based
Conditions: for IC50: Homo sapiens
Text: This assay identifies anti-proliferative effects of POLQ compounds in the homologous recombination deficient colorectal cell line DLD-1 BRCA2−/− over 8-9 population doublings (7 days for DLD-1 and 12 days for DLD-1 BRCA2−/−). DLD1 BRCA2 wt are used as a control to detect cell toxic effects not specific to homologous recombination deficiency.
DLD-1 BRCA2−/− and DLD-1 cells were kept in continuous culture in Assay Medium (RPMI 1640 phenol red free (Sigma R7509) containing 1% GlutaMAX (Gibco 35050) and 10% Foetal Bovine Serum (Gibco 10270-106)). On the day of the assay cells in culture of ˜80-90% confluent were used. Cell monolayers were washed with 10 mL PBS, then removed and added 2 mL TrypLE Express (Gibco 12604). The cells with TrypLE Express were incubated for 5 minutes in cell culture incubator and then the detached cells resuspend in 15 mL Assay Medium. Cells were counted using a ViCell and the cell images were monitored for clumps of cells, ideally they should be single or <3 cell clusters. The cells were diluted to 3,000 cells/mL of DLD-1 BRCA2−/− and 1,500 cells/mL of DLD-1 in Assay Medium and 100 μL added per well of transparent bottomed, black, tissue culture-treated 96-well plates (CoStar, No. 3904) Assay Ready Plates. The Assay Ready Plates contain a 10 point 10 μM to 0.51 nM dose range with three-fold dilutions in DMSO with a final volume of 100 nL. The plates were incubated at 37° C. with 5% C02 for 6 days. On day 6, 100 μL/well of Assay Medium was added to duplicate Assay Ready Plates. 90 μL of culture medium was removed from the cell plates and replenished with the Assay Media and compounds from the duplicate Assay Ready Plates using the Bravo. The plates were further incubated at 37° C. with 5% CO2. On day 7 the plates containing DLD-1 and Cell Titre Glo 3D (Promega G9683) were equilibrated to room temperature, then 60 μL of Cell Titre Glo 3D was added per well and incubated on a shaking platform for 30 min. Plates were read on the Envision measuring luminescence for 1 second per well. On day 12 the plates containing DLD-1 BRCA2−/− cells and Cell Titre Glo 3D (Promega G9683) were equilibrated to room temperature, then 60 μL Cell Titre Glo 3D added per well and incubated on a shaking platform for 30 min. Plates were read on the Envision measuring luminescence for 1 second per well. The data was exported into a suitable software package (such as Genedata) to perform curve fitting analysis. Inhibition of cell proliferation was expressed as an IC5o value and was determined by calculation of the concentration of compound that was required to give a 50% reduction of the average maximum Total Intensity signal.

[1] = DLD-1, first proliferation column (c5), taken as DLD-1 BRCA2-/-, read-out: POLQ PD Prolif Lumin (converted)
[2] = DLD-1, DLD-1 BRCA2 −/− cells, mean, read-out: POLQ PD Prolif Lumin BRCA2 −/− mean pIC50 (converted)
[3] = DLD-1, proliferation, luminescence, taken as DLD-1 BRCA2-/-, read-out: POLQ PD Prolif Lumin (converted)
[4] = DLD-1, first proliferation column (c5), DLD-1 BRCA2-/-, read-out: POLQ PD Prolif Lumin (converted)
[5] = DLD-1, DLD-1 BRCA2-/- proliferation, column head only partly shown, read-out: POLQ PD Prolif Lumin (converted)

## Cc1cc(OCCCN(C)C)ccc1-c1nc2c(OC3(C)CC3)ncnc2n1Cc1cc(Cl)ccn1 [Example T387, 3-(4-(9-((4-chloropyridin-2-yl)methyl)-6-(1-methylcyclopropoxy)-9H-purin-8-yl)-3-methylphenoxy)-N,N-dimethylpropan-1-amine]
[1]
  IC50: 158 nM

## CC1(Oc2ncnc3c2nc(-c2ccc(CC(N)=O)cc2Cl)n3Cc2nc(C3CC3)no2)CC1 [Example T23, 2-(3-chloro-4-(9-((3-cyclopropyl-1,2,4-oxadiazol-5-yl)methyl)-6-(1-methylcyclopropoxy)-9H-purin-8-yl)phenyl)acetamide]
[2]
  IC50: 1260 nM

## Cc1ccnc(Cn2c(-c3ccc(OCC(=O)N(C)C4COC4)cc3Cl)nc3c(OC4(C)CC4)ncnc32)c1 [Example T480, 2-(3-chloro-4-(6-(1-methylcyclopropoxy)-9-((4-methylpyridin-2-yl)methyl)-9H-purin-8-yl)phenoxy)-N-methyl-N-(oxetan-3-yl)acetamide]
[3]
  IC50: 501 nM

## Cc1cccc(Cn2c(-c3ccc(OCCC(=O)O)cc3Cl)nc3c(OC4(C)CC4)ncnc32)c1 [Example T167, 3-(3-chloro-4-(9-(3-methylbenzyl)-6-(1-methylcyclopropoxy)-9H-purin-8-yl)phenoxy)propanoic acid]
[4]
  IC50: 794 nM

## CC1(Oc2ncnc3c2nc(-c2ccc(CC(N)=O)cc2Cl)n3Cc2cncc(C#N)c2)CC1 [Example T39, 2-(3-chloro-4-(9-((5-cyanopyridin-3-yl)methyl)-6-(1-methylcyclopropoxy)-9H-purin-8-yl)phenyl)acetamide]
[2]
  IC50: 6310 nM

## CC1NCCN(CCOc2ccc(-c3nc4c(OC5(C)CC5)ncnc4n3Cc3ccccc3)c(Cl)c2)C1=O (single isomer, unassigned; isomer 2) [Example R14, 1-(2-(4-(9-benzyl-6-(1-methylcyclopropoxy)-9H-purin-8-yl)-3-chlorophenoxy)ethyl)-3-methylpiperazin-2-one (Isomer 2)]
DLD-1 BRCA2−/− cells, 12 days
  POLQ PD Prolif Lumin BRCA2 −/− mean pIC50: 6.8

## CC1(Oc2ncnc3c2nc(-c2ccc(OC[C@H]4C[C@H](C(=O)O)C4)cc2Cl)n3Cc2ccccc2C#N)CC1 [Example U27, (1r,3r)-3-((3-chloro-4-(9-(2-cyanobenzyl)-6-(1-methylcyclopropoxy)-9H-purin-8-yl)phenoxy)methyl)cyclobutane-1-carboxylic acid]
DLD-1 BRCA2 −/−, mean
  POLQ PD Prolif Lumin BRCA2 −/− mean pIC50: 6.7

## CNC(=O)COc1ccc(Cl)c(-c2nc3c(OC4(C)CC4)ncnc3n2Cc2cc(C)ccn2)c1 [Example T122, 2-(4-chloro-3-(6-(1-methylcyclopropoxy)-9-((4-methylpyridin-2-yl)methyl)-9H-purin-8-yl)phenoxy)-N-methylacetamide]
[4]
  IC50: 6310 nM

## Cc1ccnc(Cn2c(-c3ccc(C(=O)NC(C)C)cc3Cl)nc3c(OC4(C)CC4)ncnc32)c1 [Example T211, 3-chloro-N-isopropyl-4-(6-(1-methylcyclopropoxy)-9-((4-methylpyridin-2-yl)methyl)-9H-purin-8-yl)benzamide]
[5]
  IC50: 501 nM

## Cc1ccnc(Cn2c(-c3ccc(OC4CC5(COC5)C4)cc3Cl)nc3c(OC4(C)CC4)ncnc32)c1 [Example T426, 8-(4-((2-oxaspiro[3.3]heptan-6-yl)oxy)-2-chlorophenyl)-6-(1-methylcyclopropoxy)-9-((4-methylpyridin-2-yl)methyl)-9H-purine]
[3]
  IC50: 100 nM

## Cc1ccnc(Cn2c(-c3ccc(OCC(=O)N4CCC(O)CC4)cc3Cl)nc3c(OC4(C)CC4)ncnc32)c1 [Example T580, 2-(3-chloro-4-(6-(1-methylcyclopropoxy)-9-((4-methylpyridin-2-yl)methyl)-9H-purin-8-yl)phenoxy)-1-(4-hydroxypiperidin-1-yl)ethan-1-one]
DLD-1, first proliferation column, DLD-1 BRCA2-/-, read-out: POLQ PD Prolif Lumin (converted)
  IC50: 501 nM

## Cc1ccccc1Cn1c(-c2ccc(OCCC(=O)O)cc2Cl)nc2c(OC3(C)CC3)ncnc21 [Example T168, 3-(3-chloro-4-(9-(2-methylbenzyl)-6-(1-methylcyclopropoxy)-9H-purin-8-yl)phenoxy)propanoic acid]
[4]
  IC50: 1260 nM

## Cc1nnccc1Cn1c(-c2ccc(CC(N)=O)cc2Cl)nc2c(OC3(C)CC3)ncnc21 [Example T17, 2-(3-chloro-4-(6-(1-methylcyclopropoxy)-9-((3-methylpyridazin-4-yl)methyl)-9H-purin-8-yl)phenyl)acetamide]
[2]
  IC50: > 10000 nM

## CNC(=O)Cc1ccc(-c2nc3c(OC4(C)CC4)ncnc3n2Cc2cc(C)ccn2)c(Cl)c1 [Example T113, 2-(3-chloro-4-(6-(1-methylcyclopropoxy)-9-((4-methylpyridin-2-yl)methyl)-9H-purin-8-yl)phenyl)-N-methylacetamide]
[4]
  IC50: 316 nM

## CC(CCOc1ccc(-c2nc3c(OC4(C)CC4)ncnc3n2Cc2ccccc2C2CC2)c(Cl)c1)C(=O)O (single isomer, unassigned) [Example T600, 4-(3-chloro-4-(9-(2-cyclopropylbenzyl)-6-(1-methylcyclopropoxy)-9H-purin-8-yl)phenoxy)-2-methylbutanoic acid]
DLD-1 BRCA2-/-
  POLQ PD Prolif Lumin: 6.3

## Cc1ccnc(Cn2c(-c3ccc(OCC(=O)N4CCC[C@H]4C#N)cc3Cl)nc3c(OC4(C)CC4)ncnc32)c1 [Example T539, (S)-1-(2-(3-chloro-4-(6-(1-methylcyclopropoxy)-9-((4-methylpyridin-2-yl)methyl)-9H-purin-8-yl)phenoxy)acetyl)pyrrolidine-2-carbonitrile]
[4]
  IC50: 316 nM

## CC[C@@H](O)CNC(=O)c1ccc(-c2nc3c(OC4(C)CC4)ncnc3n2Cc2cc(C)ccn2)c(Cl)c1 [Example T365, (R)-3-chloro-N-(2-hydroxybutyl)-4-(6-(1-methylcyclopropoxy)-9-((4-methylpyridin-2-yl)methyl)-9H-purin-8-yl)benzamide]
[1]
  IC50: 794 nM

## COc1c(F)cc(Cl)cc1Cn1c(-c2ccc(OCCC(C)C(=O)O)cc2Cl)nc2c(OC3(C)CC3)ncnc21 (racemic) [Example U61, 4-(3-chloro-4-(9-(5-chloro-3-fluoro-2-methoxybenzyl)-6-(1-methylcyclopropoxy)-9H-purin-8-yl)phenoxy)-2-methylbutanoic acid]
DLD-1, DLD-1 BRCA2 −/−, mean, read-out: POLQ PD Prolif Lumin BRCA2 −/− mean pIC50 (converted)
  IC50: 158 nM

## Cc1ccnc(Cn2c(-c3ccc(N4CCNCC4=O)cc3Cl)nc3c(OC4(C)CC4)ncnc32)c1 [Example T202, 1-(3-chloro-4-(6-(1-methylcyclopropoxy)-9-((4-methylpyridin-2-yl)methyl)-9H-purin-8-yl)phenyl)piperazin-2-one]
[5]
  IC50: 2510 nM

## Cc1nn(C)cc1Cn1c(-c2ccc(CC(N)=O)cc2Cl)nc2c(OC3(C)CC3)ncnc21 [Example T33, 2-(3-chloro-4-(9-((1,3-dimethyl-1H-pyrazol-4-yl)methyl)-6-(1-methylcyclopropoxy)-9H-purin-8-yl)phenyl)acetamide]
[2]
  IC50: > 10000 nM

## CC1(Oc2ncnc3c2nc(-c2ccc(OCCC(=O)NS(C)(=O)=O)cc2Cl)n3Cc2cccc(Cl)c2)CC1 [Example T189, 3-(3-chloro-4-(9-(3-chlorobenzyl)-6-(1-methylcyclopropoxy)-9H-purin-8-yl)phenoxy)-N-(methylsulfonyl)propanamide]
[4]
  IC50: 3980 nM

## CC(CCOc1ccc(-c2nc3c(OC4(C)CC4)ncnc3n2Cc2cccc(C(C)(F)F)c2)c(Cl)c1)C(=O)O (single isomer, unassigned) [Example T545, 4-(3-chloro-4-(9-(3-(1,1-difluoroethyl)benzyl)-6-(1-methylcyclopropoxy)-9H-purin-8-yl)phenoxy)-2-methylbutanoic acid]
[4]
  IC50: 1000 nM

## Cc1cnnc(Cn2c(-c3ccc(CC(N)=O)cc3Cl)nc3c(OC4(C)CC4)ncnc32)c1 [Example T18, 2-(3-chloro-4-(6-(1-methylcyclopropoxy)-9-((5-methylpyridazin-3-yl)methyl)-9H-purin-8-yl)phenyl)acetamide]
[2]
  IC50: > 10000 nM
